Reference: publication PMC6152717, “Novel Tacrine-Scutellarin Hybrids as Multipotent Anti-Alzheimer’s Agents: Design, Synthesis and Biological Evaluation” (Molecules : A Journal of Synthetic Chemistry and Natural …, 2017)

How the values were obtained:
DPPH antioxidant assay = conditions: mean of at least three experiments; 30 min, methanol
Text: The free phenolic group of 1 is presumably able to easily undergo keto-enol tautomerism which has previously been postulated to be responsible for radical scavenging. Within the family of 6-Cl-THA-scutellarin hybrids, all the phenolic hydroxyls of scutellarin moiety are hindered by methyl containing methoxy groups and thus unable to exert such an effect under in vitro conditions. However, the antioxidant activity of K1383–K1389 in vivo may occur due to metabolism of the compound whereby demethylation of one or more methoxy groups can take place. This is known to be the case of 7-methoxytacrine and its major metabolite found in vivo, 7-hydroxytacrine.
DPPH, methanol, and Trolox (as reference standard) were purchased from Sigma-Aldrich. Polystyrene Nunc 96-well microplates with flat bottom shape (Thermo Fisher Scientific) were used for measuring purposes. All of the assays were carried out in methanol. DPPH solution was prepared at 0.2 mM concentration. […] The reaction time constituted 30 min. The antioxidant activity was determined by measuring the […] in absorbance at 517 nm at laboratory temperature using Synergy 2 multimode microplate reader. Each concentration was tested in triplicate. The software GraphPad Prism version 5 for Windows was used for statistical data evaluation.

[1] = molecular target: T1, human acetylcholinesterase (hAChE) (Homo sapiens, UniProt P22303); test: biochemical; conditions: AChE from human erythrocytes; mean of three independent measurements ± SEM
T1 construct: Human erythrocyte hemolyzate, prepared from blood samples, was applied as a source of AChE (EC 3.1.1.7); from tissue; host or cells: human erythrocytes (hemolyzate from blood of healthy volunteers)
Experimental: (§1) Human erythrocyte hemolyzate, prepared from blood samples, was applied as a source of AChE (EC 3.1.1.7). […] The erythrocytes were washed three times with phosphate buffer (PB; 0.1 M, pH 7.4) and then hemolyzed in PB (0.01 M, Ph 7.4) in ration 1:10 (w/w), frozen and kept under −80 °C before use. Human plasma BChE (EC 3.1.1.8), 5,5′-dithiobis(2-nitrobenzoic acid) (Ellman’s reagent, DTNB), phosphate buffer solution (PBS, pH 7.4), acetylthiocholine iodide (ATCh), and butyrylthiocholine (BTCh) were purchased from Sigma-Aldrich. Polystyrene Nunc 96-well microplates with flat bottom shape (ThermoFisher Scientific, Bremen, Germany) were used for the measuring purposes. All of the assays were carried out in 0.1 M KH2PO4/K2HPO4 buffer, pH 7.4. […] The assay medium (100 μL) consisted of 40 μL of 0.1 M PBS (pH = 7.4), 20 μL of 0.01 M DTNB, 10 μL of cholinesterase, 10 µL of tested compound and 20 μL of 0.01 M substrate (ATCh or BTCh iodide solution). Assayed solutions of target compounds (10 μL, 10^−^3–10^−^9 M) were preincubated with enzyme for 5 min. The reaction was initiated by addition of 20 μL of substrate. […] Each concentration was assayed in triplicate. Percentage of inhibition (I) was calculated from the measured data as follows Equation (1): (1) I=(1−ΔAi/ΔA0)×100 [%]
(§2) ΔAi indicates absorbance change provided by cholinesterase exposed to tested compound. ΔA0 indicates absorbance change caused by intact cholinesterase, where phosphate bufffer was applied in the same was as the anticholinesterase compound. […] The IC50 values are expressed as a mean ± SEM.

[2] = PAMPA-BBB permeation assay; type: in vitro ADME; conditions: for Prediction of BBB penetration: PAMPA-BBB class; for Papp at 100 μM / BBB crossing prediction: PAMPA-BBB; for Papp at 100 μM: PBS pH 7.4, 100 μM donor, mean ± SD of three independent experiments, read-out: Pe; for BBB crossing prediction: passive diffusion model
Experimental: The parallel artificial membrane permeation assay (PAMPA) has been used based on reported protocol. The filter membrane of the donor plate was coated with PBL (Polar Brain Lipid, Avanti, Alabaster, AL, USA) in dodecane (4 μL of 20 mg/mL PBL in dodecane) and the acceptor well was filled with 300 μL of PBS pH 7.4 buffer (VD). Tested compounds were dissolved first in DMSO and then diluted with PBS pH 7.4 to reach the final concentration 100 μM in the donor well. […] 300 μL of the donor solution was added to the donor wells (VA) and the donor filter plate was carefully put on the acceptor plate so that coated membrane was “in touch” with both donor solution and acceptor buffer. Test compound diffused from the donor well through the lipid membrane (Area = 0.28 cm^2) to the acceptor well. The concentration of the drug in both donor and the acceptor wells was assessed after 3, 4, 5 and 6 h of incubation in quadruplicate using the Synergy HT UV plate reader at the maximum absorption wavelength of each compound. Concentration of the compounds was calculated from the standard curve and expressed as the permeability (Pe) according to Equation (2): (2) logPe=log {C×−ln(1−[drug]acceptor/[drug]equilibrium)} where C = (VD×VA/(VD+VA)×Area×time)

HepG2 cells = test: Hepatotoxicity on HepG2 cells, MTT assay; type: cell-based; conditions: for IC50: Homo sapiens, HepG2, MTT, 24 h incubation, mean ± SEM of three independent experiments; for cytotoxicity compared to reference 6-Cl-THA: HepG2, 24 h incubation
Experimental: Hepatotoxicity of tested compounds was evaluated using the HepG2 cell line originally from human liver hepatocellular carcinoma (ATCC, Manassas, VA, USA). These cells were plated at density 17 × 10^3 per well in a 96-well plate in Dulbecco’s Modified Eagle’s Medium (DMEM; Gibco, Langley, OK, USA) with 10% FBS (Gibco) and were left to attach overnight. […] Stock solutons of tested compounds were prepared in DMSO (Sigma Aldrich, Prague, Czech Republic) and then diluted in DMEM medium. […] Subsequently, the medium was aspirated and 100 μL MTT solution (0.5 mg/mL) in serum-free DMEM medium was added to each well. Cells were then incubated for 1 h. The medium was then discarded and purple crystals of MTT formazan were dissolved in 100 μL DMSO under shaking. The absorbance was measured with a microplate reader (BioTek) at a minimum wavelength of 570 nm. The IC50 values were calculated using four parametric nonlinear regression with statistic software GraphPad Prism. Data were obtained from three independent experiments performed in triplicates.

[3] = molecular target: T2, human butyrylcholinesterase (hBChE) (Homo sapiens, UniProt P06276); test: biochemical; conditions: BChE from human plasma; mean of three independent measurements ± SEM
T2 construct: Human plasma BChE (EC 3.1.1.8); purchased Sigma-Aldrich; host or cells: human plasma
Text: It is well established that the activity of AChE decreases during the course of AD, while that of BChE increases. Several reports indicate the ability of BChE to compensate the lack of AChE thus continuing in regulation of cholinergic transmission. Therefore, the agents with affinity to both cholinesterases could play a more profound role in the AD therapy.
as §1, §2

T2 sequence (P06276 29-602): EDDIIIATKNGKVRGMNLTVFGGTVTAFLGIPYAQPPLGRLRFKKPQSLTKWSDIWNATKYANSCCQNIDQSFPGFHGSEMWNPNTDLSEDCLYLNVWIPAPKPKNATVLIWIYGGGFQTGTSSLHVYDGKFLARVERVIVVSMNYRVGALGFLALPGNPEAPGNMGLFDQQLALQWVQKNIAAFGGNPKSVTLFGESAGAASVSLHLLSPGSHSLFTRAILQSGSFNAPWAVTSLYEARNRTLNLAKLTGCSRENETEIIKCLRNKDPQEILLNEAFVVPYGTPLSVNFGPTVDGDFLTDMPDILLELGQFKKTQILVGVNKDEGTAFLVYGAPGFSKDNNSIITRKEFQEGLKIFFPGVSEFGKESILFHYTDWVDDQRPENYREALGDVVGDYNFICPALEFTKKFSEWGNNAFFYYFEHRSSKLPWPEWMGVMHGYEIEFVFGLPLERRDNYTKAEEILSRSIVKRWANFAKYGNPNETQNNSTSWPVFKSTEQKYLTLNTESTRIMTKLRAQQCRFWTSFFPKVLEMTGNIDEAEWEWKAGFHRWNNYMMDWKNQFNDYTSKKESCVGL
T1 sequence (P22303 32-617 isoform P22303-2 limits assumed): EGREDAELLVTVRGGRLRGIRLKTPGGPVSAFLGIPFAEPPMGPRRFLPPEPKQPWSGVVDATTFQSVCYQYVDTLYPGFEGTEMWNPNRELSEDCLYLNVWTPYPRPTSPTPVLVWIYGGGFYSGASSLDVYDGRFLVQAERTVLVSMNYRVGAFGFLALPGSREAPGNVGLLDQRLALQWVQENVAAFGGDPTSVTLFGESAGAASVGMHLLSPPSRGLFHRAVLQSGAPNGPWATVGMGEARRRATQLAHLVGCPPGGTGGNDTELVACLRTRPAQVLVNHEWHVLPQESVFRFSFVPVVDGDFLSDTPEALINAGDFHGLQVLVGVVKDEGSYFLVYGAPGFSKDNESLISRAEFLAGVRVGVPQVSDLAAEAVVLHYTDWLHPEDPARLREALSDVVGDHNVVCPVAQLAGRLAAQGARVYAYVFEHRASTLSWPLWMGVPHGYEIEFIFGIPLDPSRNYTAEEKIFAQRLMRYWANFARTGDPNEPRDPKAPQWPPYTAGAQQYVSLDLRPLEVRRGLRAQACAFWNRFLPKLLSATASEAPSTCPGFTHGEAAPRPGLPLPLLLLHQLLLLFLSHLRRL

SMILES | EC50 (DPPH antioxidant assay) [µM] | IC50 [1] [µM] | Prediction of BBB penetration [2] | Papp at 100 μM [2] [×10⁻⁶ cm/s] | IC50 (HepG2 cells) [µM] | IC50 [3] [µM] | BBB crossing prediction [2] | cytotoxicity compared to reference 6-Cl-THA (HepG2 cells)
COc1cc2oc(-c3ccc(NCCCCNc4c5c(nc6cc(Cl)ccc46)CCCC5)cc3)cc(=O)c2c(OC)c1OC [Compound K1385] | > 500 | 0.00515 ± 0.00018 | CNS± (BBB permeation uncertain, Pe × 10^−6 cm/s from 4.0 to 2.0) | 2.6 ± 0.55 | 3.29 ± 0.82 | 8.69 ± 0.04 |  | 
COc1cc2oc(-c3ccc(NCCCCCNc4c5c(nc6cc(Cl)ccc46)CCCC5)cc3)cc(=O)c2c(OC)c1OC [Compound K1386] | > 500 | 0.0267 ± 0.001 | CNS± (BBB permeation uncertain, Pe × 10^−6 cm/s from 4.0 to 2.0) | 3.93 ± 1 | 3.89 ± 1.08 | 0.934 ± 0.045 |  | 
COc1cc2oc(-c3ccc(NCCCCCCNc4c5c(nc6cc(Cl)ccc46)CCCC5)cc3)cc(=O)c2c(OC)c1OC [Compound K1387] | > 500 | 0.031 ± 0.0015 | CNS± (BBB permeation uncertain, Pe × 10^−6 cm/s from 4.0 to 2.0) | 3.31 ± 0.38 | 7.76 ± 1.47 | 6.46 ± 0.3 |  | 
COc1cc2oc(-c3ccc(NCCCCCCCNc4c5c(nc6cc(Cl)ccc46)CCCC5)cc3)cc(=O)c2c(OC)c1OC [Compound K1388] | > 500 | 0.0241 ± 0.0009 | CNS+ (high BBB permeation predicted, Pe × 10^−6 cm/s > 4.0) | 4.92 ± 0.02 | > 32 | 2.81 ± 0.11 | potential to cross the BBB | slightly suppressed cytotoxicity
COc1cc2oc(-c3ccc(NCCCCCCCCNc4c5c(nc6cc(Cl)ccc46)CCCC5)cc3)cc(=O)c2c(OC)c1OC [Compound K1389] | > 500 | 0.0223 ± 0.0007 | CNS+ (high BBB permeation predicted, Pe × 10^−6 cm/s > 4.0) | 8.1 ± 3.1 | > 16 | 2.21 ± 0.13 | potential to cross the BBB | slightly suppressed cytotoxicity
Cc1c(C)c2c(c(C)c1O)CCC(C)(C(=O)O)O2 (centres unmarked) [trolox, Trolox, reference compound] | 16.2 ± 0.42 |  |  |  |  |  |  | 
